By IC50 is commonly meant the midpoint of a concentration-inhibition curve.

The subject of one test is PGHS-2. As to conditions: in words; cited from earlier work.
The next test concerns PGHS-1. As to conditions: in words; cited from earlier work.
For test [1], the target named is T1, recombinant human PGHS-1 (prostaglandin hydroperoxidase -1, cyclooxygenase-1) (Homo sapiens, UniProt P23219).
T1 construct: made in house; host or cells: baculovirus/Sf9 insect cells (microsomes)
The experiment in a line: Recombinant Human PGHS-1 enzyme assay (PGE2 production by EIA). Format: biochemical. As to conditions: 60 min preincubation; 10 μM arachidonic acid. On the procedure: 1. recombinant human prostaglandin hydroperoxidase -1 (cyclooxygenase-1)
(§1) Compound dissolved in DMSO (3.3% v/v) was preincubated with microsomes from recombinant human PGHS-1 or PGHS-2 expressed in the baculovirus/Sf9 cell system (Gierse, J. K., Hauser, S. D., Creely, D. P., Koboldt, C., Rangwala, S., H., Isakson, P. C., and Seibert, K. Expression and selective inhibition of the constituitive and inducible forms of cyclooxygenase Biochem J. 1995, 305: 479.), together with the cofactors phenol (2 mM) and hematin (1 μM) for 60 minutes prior to the addition of 10 μM arachidonic acid. The reaction was allowed to run for 2.5 minutes at room temperature prior to quenching with HCl and neutralization with NaOH. PGE2 production in the presence and absence of the drug was determined by EIA analysis.
(§2) EIA reagents for prostaglandin determination were purchased from Perseptive Diagnostics, Cambridge, Mass. PGE2 levels in lavage fluids were determined after the samples were dried under nitrogen and reconstituted with assay buffer. PGE2 levels in enzyme assays or cell culture media were measured against standards prepared in the same milieu. The immunoassays were conducted as recommended by the manufacturer. The EIA was conducted in 96 well microtiter plates (Nunc Roskilde, Denmark) and optical density measured using a microplate reader (Vmax, Molecular Devices Corp., Menlo Park, Calif.).

For test [2], the target named is T2, recombinant human PGHS-2 (prostaglandin hydroperoxidase -2, cyclooxygenase-2) (Homo sapiens, UniProt P35354).
T2 construct: made in house; host or cells: baculovirus/Sf9 insect cells (microsomes)
T2 sequence (P35354 18-604): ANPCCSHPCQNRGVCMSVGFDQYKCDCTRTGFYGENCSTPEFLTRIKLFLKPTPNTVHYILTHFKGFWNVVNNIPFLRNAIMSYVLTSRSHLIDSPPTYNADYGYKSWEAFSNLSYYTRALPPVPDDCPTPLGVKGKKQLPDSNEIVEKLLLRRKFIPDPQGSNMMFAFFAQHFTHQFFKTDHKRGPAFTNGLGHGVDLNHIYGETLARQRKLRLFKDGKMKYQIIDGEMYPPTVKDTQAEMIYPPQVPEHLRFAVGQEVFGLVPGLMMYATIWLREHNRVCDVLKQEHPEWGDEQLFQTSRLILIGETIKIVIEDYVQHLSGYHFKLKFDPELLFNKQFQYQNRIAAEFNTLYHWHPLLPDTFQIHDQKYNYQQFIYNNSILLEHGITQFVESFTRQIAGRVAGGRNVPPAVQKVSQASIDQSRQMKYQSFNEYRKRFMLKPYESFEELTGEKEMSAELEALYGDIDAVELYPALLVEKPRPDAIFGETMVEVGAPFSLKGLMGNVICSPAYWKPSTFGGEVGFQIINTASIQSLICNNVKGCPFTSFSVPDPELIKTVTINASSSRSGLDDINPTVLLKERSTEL
The test is described as follows: Recombinant Human PGHS-2 enzyme assay (PGE2 production by EIA). The format is biochemical. As to conditions: 60 min preincubation; 10 μM arachidonic acid. On the procedure:
2. recombinant human prostaglandin hydroperoxidase -2 (cyclooxygenase-2)
as §1, §2

T1 sequence (P23219 24-599): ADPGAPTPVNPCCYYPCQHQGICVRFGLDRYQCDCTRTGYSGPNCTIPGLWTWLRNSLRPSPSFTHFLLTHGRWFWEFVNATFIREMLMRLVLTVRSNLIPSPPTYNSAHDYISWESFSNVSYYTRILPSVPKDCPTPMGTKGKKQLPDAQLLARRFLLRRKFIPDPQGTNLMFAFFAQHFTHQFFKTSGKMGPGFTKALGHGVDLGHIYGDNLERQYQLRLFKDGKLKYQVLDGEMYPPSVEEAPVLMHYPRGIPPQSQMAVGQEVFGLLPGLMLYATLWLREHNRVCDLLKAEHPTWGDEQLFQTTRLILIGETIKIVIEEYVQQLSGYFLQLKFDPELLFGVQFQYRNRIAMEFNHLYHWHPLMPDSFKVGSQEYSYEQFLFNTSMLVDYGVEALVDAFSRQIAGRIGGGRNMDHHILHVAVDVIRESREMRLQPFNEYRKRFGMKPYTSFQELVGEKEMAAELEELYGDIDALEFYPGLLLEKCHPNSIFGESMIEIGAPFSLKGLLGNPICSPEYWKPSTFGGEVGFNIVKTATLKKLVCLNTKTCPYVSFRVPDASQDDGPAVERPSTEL

Consider `CC1=C(CC(=O)O)c2cc(F)ccc2/C1=C\c1ccc([S+](C)[O-])cc1` (stereo not drawn) [sulindac], for which the “inhibition of PGHS-2” value in the test on PGHS-2 is “inhibit both PGHS-1 and PGHS-2”. Further, the “inhibition of PGHS-1” value in the test with PGHS-1 is “inhibit both PGHS-1 and PGHS-2”.
With `COc1ccc2c(c1)c(CCON=CC(O)CO)c(C)n2C(=O)c1ccc(Cl)cc1` (stereo not drawn) [Example 7, glyceraldehyde-O-[2-(1-(4-chlorobenzoyl)-5-methoxy-2-methylindol-3-yl)ethyl] oxime], the results for the concentration for half-maximal inhibition (IC50) in test [1] and in test [2] were 24 µM and 0.06 µM, respectively.
Take `COc1ccc2c(c1)c(CC(=O)O)c(C)n2C(=O)c1ccc(Cl)cc1` [Indomethacin, indomethacin]: the “inhibition of PGHS-2” value in the test with PGHS-2 was “inhibit both PGHS-1 and PGHS-2”. The “inhibition of PGHS-1” value in the test with PGHS-1 is “inhibit both PGHS-1 and PGHS-2”.
Take `COc1ccc2c(c1)c(CCON=C(C)/C=C/C(=O)O)c(C)n2C(=O)c1ccc(Cl)cc1` [Example 6, 4-oxopent-2-enoic acid-2-O-[2-(4-chlorobenzoyl-5-methoxy-2-methylindol-3-yl)ethyl] oxime]: the concentration for half-maximal inhibition (IC50) stood at 52 µM in test [1] and 0.07 µM in test [2].
Consider `CC(C)Cc1ccc(C(C)C(=O)O)cc1` (stereo not drawn) [ibuprofen], for which, in the test on PGHS-2, the “inhibition of PGHS-2” value is given as “inhibit both isozymes”. Moreover, the “inhibition of PGHS-1” value in the test with PGHS-1 is “inhibit both isozymes”.
Take `COc1ccc2cc([C@H](C)C(=O)O)ccc2c1` [naproxen]: the “inhibition of PGHS-2” value in the test with PGHS-2 is “inhibit both isozymes”. In addition, in the test on PGHS-1, the “inhibition of PGHS-1” value was “inhibit both isozymes”.

The record behind these values is patent publication US5756531A, “Iminoxy derivatives of indole and indene compounds as inhibitors of prostaglandin biosynthesis” (Abbott Laboratories, priority 1996, dated 1998).
